Data taken from patent US20200291082A1, “PREVENTION AND TREATMENT OF GRAFT-VERSUS-HOST-DISEASE WITH DEFENSINS” (priority 2017, published 2020).
“Also recorded” adds a separate entry of the source. No end group written: not given here.

Key:
[1] = system: acute graft versus host disease following stem cell transplantation; assay: prophylactic oral hBD-2 in murine model of acute graft versus host disease following stem cell transplantation (Example 13); format: in vivo, BALB/c mice; details: for IL-1β from myeloid cells: CD11c+ dendritic cells and CD11b+ Ly6FG− cells; for infiltration with CD45+ leucocytes (FACS analysis): lamina propria of colon (FIG. 50: colon and small intestine); for intestinal T cell and myeloid cell infiltration: lamina propria of the colon (FIG. 51: colon and small intestine)
Method: To determine and assess the efficacy of prophylactic treatment with oral hBD-2 in a murine model of acute graft versus host disease following stem cell transplantation.
Treatment regime: 12 female BALB/c mice were irradiated with 4.5 Gy (2×498 sec) at intervals of at least 4 hours on day 0. Bone marrow was harvested: hind limbs harvested from 2 female WT C57BL/6 mice aseptically. Skeletal muscle was removed and epiphysis cut away. Lumen of bone flushed with PBS and cells pelleted and taken up. Harvest of T-cells: spleens from 2 female WT C57BL/6 mice were meshed through a 100 μM cell strainer into a PBS filled dish. Cells were taken up in PBS and transferred into a 50 mL falcon tube and spun down. Cells were taken up in 1 mL PBS and 20 μL of CD4 microbead+20 μL CD8 microbeads per spleen added for incubation for 20 min at 4 degrees C. Cells were washed with PBS and applied to MACS separation in order to positively select CD4+ and CD8+ cells. Positively selected T-cells were counted and taken up. Transplantation: directly after the second irradiation, all WT BALB/c recipient mice were injected with 5×1.000.000 BM cells (50 μL) i.v. into the retroorbital venous plexus under isoflurane anesthesia. 15 BALB/c mice were treated with 1.2 mg of hBD2/kg BW/day in 100 μL PBS per day vial oral gavage from day 0-10.
15 BALB/c mice received vehicle 100 μL PBS per day via oral gavage from day 0-10.
The mice were weighed daily for the initial 7 days and survival was monitored for 100 days.

[2] = system: Dextran Sodium Sulphate induced colitis; assay: prophylactic murine 10-day oral Dextran Sodium Sulphate induced colitis model, s.c. and i.v. hBD2 versus i.p. mouse anti TNF-α (Example 1); format: in vivo, C57BL/6 mice; details: for histological score of distal colon: FIG. 9; for disease activity index (DAI): 10 days
Method: Anti-inflammatory effect of s.c. and i.v. administration of hBD2 versus intraperitoneal mouse anti TNF-α in a prophylactic, murine, 10-day, oral Dextran Sodium Sulphate induced colitis model.
70 male C57BL/6 mice housed in groups of five per cage were allocated to 7 different treatment groups. All animals had their drinking water supplemented with DSS 2% for 7 days to induce colitis resulting in significant inflammation and injury of the colonic tissue. The animals were treated with hBD2 dosed intravenously in the tail vein or subcutaneously under the dorsal skin, with mouse anti TNF-α intraperitoneally or PBS as vehicle for 10 days.
A disease activity index (DAI) scoring system was applied for clinical assessment (FIG. 7). The animals were sacrificed on day 10 and colon removed for histological assessment employing a histological scoring system (FIG. 8).

[3] = system: house dust mite model of allergic asthma; assay: therapeutic intranasal versus oral hBD2 in murine house dust mite model of allergic asthma (Example 10); format: in vivo, BALB/c mice
Method: To determine and assess the efficacy of IN versus oral therapeutic intervention with defensins in a murine house dust mite model of allergic asthma.
Treatment regime: Female 7-10 weeks old BALB/c mice were randomly allocated into 7 study groups one day prior to study start and subcutaneously (SC) sensitized to house dust mite (100 μg HDM in 200 μL saline plus Freund's complete adjuvant in 0.9% saline). Mice were then intranasally (IN) challenged with HDM on day 14 (HDM 25 μg in 50 μL of saline). Dexamethasone was administered orally (1 mg/kg BID; 50 μL phosphate buffered saline (PBS)) on day 14. hBD2 was administered IN or orally (1.7 mg/kg TID IN; 0.4 mg/kg TID IN; 0.4 mg/kg TID orally, 50 μL phosphate buffered saline) on day 14. The initial dose was administered 60 minutes prior to challenge, and the subsequent doses approximately 6 hours apart (FIG. 5).
Airway inflammation: At 48 hours post challenge, bronchoalveolar lavage was performed washing the lungs with 3 volumes of cold PBS (0.4; 0.3 and 0.3 mL, total 1 mL). Total and differential leucocyte cell counts were determined on an automated haematological analyser Sysmex XT-2000iV.
Data are represented as airway resistance at […] methacholine and as dose responsive curves.
Lung sampling for cytokine analysis: After completion of every BAL, lungs were removed from the thorax, snap frozen in liquid nitrogen and stored frozen at −80 degrees Celsius until analysis of cytokine concentration of IL-1β, TNF-α, IL-6, IL-10 and IFNγ by ELISA.

[4] = system: Dextran Sodium Sulphate induced colitis; assay: therapeutic murine 14-day Dextran Sodium Sulphate induced colitis model (Example 5); format: in vivo, C57BL/6 mice
Method: Anti-inflammatory effect of s.c. administration of hBD2 versus intraperitoneal anti TNF-α and intraperitoneal dexamethasone in a therapeutic, murine, 14-day, Dextran Sodium Sulphate induced colitis model.
70 male C57BL/6 mice housed in groups of five per cage were allocated to 7 different treatment groups. All animals had their drinking water supplemented with DSS 2% for 14 days to induce colitis resulting in significant inflammation and injury of the colonic tissue. The animals were treated with hBD2, 0.1 mg/kg s.c. BID; 0.1 mg/kg s.c. OD or 1.2 mg/kg i.v. […]
A disease activity index (DAI) scoring system was applied for clinical assessment (FIG. 7). The animals were sacrificed on day 14 and colon removed for histological assessment employing a histological scoring system (FIG. 8)

[5] = system: acute graft versus host disease following stem cell transplantation; assay: prophylactic oral hBD-2 versus cyclosporine in murine model of acute graft versus host disease (Example 14); format: in vivo, BALB/c mice
Method: To determine and assess the efficacy of prophylactic treatment with oral hBD-2 versus cyclosporine in a murine model of acute graft versus host disease following stem cell transplantation.
Treatment regime: 20 female BALB/c mice were irradiated with 4.5 Gy (2×498 sec) at intervals of at least 4 hours on day 0. Bone marrow was harvested: hind limbs harvested from 2 female WT C57BL/6 mice aseptically. Skeletal muscle was removed and epiphysis cut away. Lumen of bone flushed with PBS and cells pelleted and taken up. Harvest of T-cells: spleens from 2 female WT C57BL/6 mice were meshed through a […] cell strainer into a PBS filled dish. Cells were taken up in PBS and transferred into a 50 mL falcon tube and spun down. Cells were taken up in 1 mL PBS and 20 μL of CD4 microbead+20 μL CD8 microbeads per spleen added for incubation for 20 min at 4 degrees C. Cells were washed with PBS and applied to MACS separation in order to positively select CD4+ and CD8+ cells. Positively selected T-cells were counted and taken up. Transplantation: directly after the second irradiation, all WT BALB/c recipient mice were injected with 5×1.000.000 BM cells (50 μL) i.v. into the retroorbital venous plexus under isoflurane anesthesia. 20 BALB/c mice were treated with 1.2 mg of hBD2/kg BW/day (n=7); 50 mg cyclosporine/kg BW on days 0, 3, 6 and 9 (n=7) or 100 μL PBS per day vial oral gavage (n=6) from day 0-10.
The mice were weighed at regular intervals during the study and survival was monitored for 90 days.

[6] = oral hBD2 1.2 mg/kg/day day 0-10, 15 mice
[7] = oral hBD-2 for 10 days versus PBS
[8] = dexamethasone 1 mg/kg BID oral, hBD2 both IN doses (0.4 mg/kg/day TID and 1.7 mg/kg/day TID)
[9] = hBD2 both oral and intranasal TID on day 14, versus HDM challenged vehicle

“human beta defensin 2 (GIGDPVTCLKSGAICHPVFCPRRYKQIGTCGLPGTKCCKKP; not fully specified (bridges); ends and bridges not checked; listed as Homo sapiens) [hBD2]” was tested, and the “Th1 cytokine production (TNF-α and IFN-γ in CD4 and CD8 T cells)” value ([1]; FACS analysis of the spleen) was “reduced Th 1 cytokine production; also recorded: reduced Th1 cytokine production”, the neutrophils ([1]; FACS analysis of the spleen) was “Reduced proportion of neutrophils; also recorded: reduced number of neutrophils” and the “IL-1β from myeloid cells” value ([1]; FACS analysis of the spleen) was “decrease the production of IL-1β”. The “IL-1β from myeloid cells” value ([1]; FACS analysis of the spleen, listed as hBD-2) was “reduction of IL-1β from myeloid cells; also recorded: Reduced IL-1β production”, the weight loss ([1]; first 7 days following bone marrow transplantation) was “lost statistically significantly less weight” and the “survival (Kaplan-Meyer plot)” value ([1]; hBD2 1.2 mg/kg/day day 0 to day 10 versus vehicle, n=15) was “dramatically increased survival”. The “microarray analysis of colon samples” value ([1]; hBD-2 treated group versus PBS) was “decreased inflammation, leucocyte and myeloid cell migration and tissue remodelling”, the “infiltration with CD45+ leucocytes (FACS analysis)” value [1] was “reduced the infiltration” and the “infiltration with CD45+ leucocytes (FACS analysis)” value ([1]; listed as hBD-2) was “Reduced CD45+ leucocyte cell migration”. For the same substance, the “intestinal T cell and myeloid cell infiltration” value [1] was “reduced”, the “intestinal T cell and myeloid cell infiltration” value ([1]; listed as hBD-2) was “Reduction of intestinal T cell and myeloid cell infiltration” and the “mice still alive by day 100” value [1, 6] was 8 mice. For the same substance, the “share of treated mice that had died by day 35” value [1, 6] was “less than 30%”, the “treated mice that had died by day 35” value ([1]; oral hBD2 1.2 mg/kg/day day 0-10, 15 mice, all 15 vehicle mice had died by day 35) was 4 and the “histology score of the colon” value [1, 7] was “highly statistically lower; also recorded: statistically significant reduction of histology score”. The “histology score of the liver” value [1, 7] was “highly statistically lower; also recorded: statistically significant reduction of histology score”, the “histology score of the small intestine” value [1, 7] was “highly statistically lower; also recorded: statistically significant reduction of histology score” and the TNF-α concentration ([1]; serum (FIG. 52a)) was “reduction”. The IL-6 concentration ([1]; serum (FIG. 52b)) was “reduction”, the IL-10 concentration ([1]; serum (FIG. 52c)) was “increased concentration of IL-10” and the “histological score of distal colon” value ([2]; hBD2 0.1 mg/kg compared with mouse anti TNF-α) was “statistically significant superiority”. For the same substance, the “histological score of distal colon” value ([2]; subcutaneous compared with i.v. hBD2 administration) was “superiority over i.v. administration”, the “disease activity index (DAI)” value ([2]; hBD2 intravenous administration) was “significant reduction of DAI” and the histology score ([2]; hBD2 s.c. twice daily, colon day 10) was “highly statistical significant effect on histology score”. For the same substance, the “disease activity index (DAI)” value ([2]; hBD2 subcutaneous route, once or twice daily) was “most significant effect”, the “eosinophil counts in BALF” value [3, 8] was “trend towards lowering of eosinophils” and the “macrophage counts in BALF” value [3, 8] was “significantly inhibited”. The “neutrophil counts in BALF” value [3, 8] was “significantly inhibited”, the “total cell counts in BALF” value [3, 8] was “significantly inhibited” and the “IL-6 level in lung tissue homogenates” value ([3]; hBD2, both dosing routes) was “significant effects”. The “IL-10 level in lung tissue homogenates” value ([3]; hBD2, both dosing routes) was “significant effects”, the airway resistance [3, 9] was “effectively inhibited increase of airway resistance” and the pulmonary compliance [3, 9] was “effectively inhibited”. For the same substance, the “TNF-α level in lung tissue homogenates” value ([3]; intranasally administered hBD2) was “differed from the control but not significantly”, the “TNF-α level in lung tissue homogenates” value ([3]; perorally administered hBD2) was “significantly reduced TNF-α” and the “histological score, compared with references” value ([4]; FIG. 16, hBD2 0.1 mg/kg versus dexamethasone 1 mg/kg and mouse anti TNF-α 300 μg/mouse) was “on par with dexamethasone 1 mg/kg and superior to mouse anti TNF-α 300 μg/mouse”. For the same substance, the “disease activity index (DAI)” value ([4]; hBD2 0.1 mg s.c. OD, Dexamethasone 1 mg/kg i.p. OD, day 8 to day 14) was “statistically significant effect on DAI”, the histological score ([4]; hBD2 0.1 mg/kg s.c. OD, Dexamethasone 1 mg/kg i.p. OD, colon day 14) was “statistically significant effect on histological score; also recorded: statistical significant effect” and the mortality ([5]; FIG. 56, 7 mice treated with oral hBD-2 for 10 days) was “statistically significant reduction of mortality”. For the same substance, the “weight loss following bone marrow transplantation” value ([5]; compared with PBS treated mice) was “lost statistically significantly less weight” and the “treated animals that had died by day 90” value ([5]; oral hBD-2 1.2 mg/kg/day day 0-10 (n=7), cyclosporine 50 mg/kg on days 0, 3, 6 and 9 (n=7), all but one of PBS mice (n=6) died) was 1.
